Results as given in ChEMBL document CHEMBL3045504, “Activity of 1,4-benzoquinones against formosan subterranean termites (Coptotermes formosanus)” (2008).

Key:
Assay type in all cases: functional
[1] = test system: Coptotermes formosanus; test: Termiticidal activity against Coptotermes formosanus placed on 1 % wt/wt compound treated filter paper assessed as termite mortality measured 3 days post compound exposure
[2] = test system: Coptotermes formosanus; test: Antifeedant activity against Coptotermes formosanus placed on 1 % wt/wt compound treated filter paper assessed as filter paper consumption measured 21 days post compound exposure (reference value: 85 +/- 15.1 mg)
[3] = test system: Coptotermes formosanus; test: Termiticidal activity against Coptotermes formosanus placed on 1 % wt/wt compound treated filter paper assessed as termite mortality measured 21 days post compound exposure
[4] = test system: Coptotermes formosanus; test: Termiticidal activity against Coptotermes formosanus placed on 1 % wt/wt compound treated filter paper assessed as termite mortality measured 11 days post compound exposure
[5] = test system: Coptotermes formosanus; test: Antifeedant activity against Coptotermes formosanus placed on 1 % wt/wt compound treated filter paper assessed as filter paper consumption measured 21 days post compound exposure (reference value: 42.4 +/- 4.3 mg)
[6] = test system: Coptotermes formosanus; test: Antifeedant activity against Coptotermes formosanus placed on 1 % wt/wt compound treated filter paper assessed as filter paper consumption measured 21 days post compound exposure (reference value: 15.9 +/- 10.4 mg)

Q: Which mortality [1] does the source give for `COC1=CC(=O)C=CC1=O` here?
A: The mortality was 13.3%.

Q: What about the Activity [2] of the same molecule?
A: The Activity was 6.5 mg.

Q: What about the mortality [3] of the same molecule?
A: Its mortality is 31.7%.

Q: And the mortality [4]?
A: The mortality was 21.7%.

Q: Which mortality [1] does the source give for `COC1=CC(=O)C(OC)=CC1=O` here?
A: The mortality was 3.3%.

Q: And the Activity [2]?
A: Its Activity is 107 mg.

Q: What about the mortality [3] of the same molecule?
A: Its mortality is 8.3%.

Q: And the mortality [4]?
A: Its mortality is 6.7%.

Q: For `COC1=CC(=O)C=C(OC)C1=O` [2,6-DIMETHOXYQUINONE], which mortality [1] is on record?
A: Its mortality is 0%.

Q: What about the Activity [2] of the same molecule?
A: Its Activity is 75.9 mg.

Q: And the mortality [3]?
A: Its mortality is 3.3%.

Q: And the mortality [4]?
A: The mortality was 3.3%.

Q: How did the Activity [2] turn out when `O=C1C=CC(=O)C=C1` [BENZOQUINONE] was run?
A: Its Activity is 80.7 mg.

Q: How did the mortality [1] turn out when `COC1=C(OC)C(=O)C(C/C=C(\C)CCC=C(C)C)=C(C)C1=O` [Coenzyme Q2] was run?
A: The mortality was 0%.

Q: And the Activity [2]?
A: The Activity was 56.1 mg.

Q: And the mortality [3]?
A: The mortality was 25%.

Q: What about the mortality [4] of the same molecule?
A: The mortality was 15%.

Q: With `COC1=C(OC)C(=O)C(C/C=C(\C)CC/C=C(\C)CC/C=C(\C)CCC=C(C)C)=C(C)C1=O` [Coenzyme Q4] as the molecule, how does the mortality [1] read?
A: The mortality was 1.7%.

Q: What about the Activity [2] of the same molecule?
A: The Activity was 74.6 mg.

Q: What about the mortality [3] of the same molecule?
A: The mortality was 15%.

Q: And the mortality [4]?
A: The mortality was 11.7%.

Q: For `COC1=C(OC)C(=O)C(C/C=C(\C)CC/C=C(\C)CC/C=C(\C)CC/C=C(\C)CC/C=C(\C)CCC=C(C)C)=C(C)C1=O` [Coenzyme Q6], which mortality [1] is on record?
A: The mortality was 1.7%.

Q: What about the Activity [2] of the same molecule?
A: The Activity was 97.3 mg.

Q: And the mortality [3]?
A: Its mortality is 18.3%.

Q: What about the mortality [4] of the same molecule?
A: Its mortality is 6.7%.

Q: How did the mortality [1] turn out when `COC1=C(OC)C(=O)C(C/C=C(\C)CC/C=C(\C)CC/C=C(\C)CC/C=C(\C)CC/C=C(\C)CC/C=C(\C)CC/C=C(\C)CC/C=C(\C)CCC=C(C)C)=C(C)C1=O` [Coenzyme Q9] was run?
A: The mortality was 15%.

Q: What about the Activity [2] of the same molecule?
A: The Activity was 63.9 mg.

Q: And the mortality [3]?
A: Its mortality is 15%.

Q: What about the mortality [4] of the same molecule?
A: Its mortality is 15%.

Q: For `COC1=CC(=O)C(C)=CC1=O` [Coprinin], which mortality [1] is on record?
A: The mortality was 18.3%.

Q: What about the Activity [2] of the same molecule?
A: Its Activity is 4.2 mg.

Q: What about the mortality [3] of the same molecule?
A: Its mortality is 93.3%.

Q: And the mortality [4]?
A: The mortality was 56.7%.

Q: How did the mortality [1] turn out when `CC1=CC(=O)C=CC1=O` [Cresoquinone] was run?
A: The mortality was 1.7%.

Q: What about the Activity [2] of the same molecule?
A: Its Activity is 22.5 mg.

Q: And the mortality [3]?
A: Its mortality is 20%.

Q: And the mortality [4]?
A: The mortality was 11.7%.

Q: `CCCCCCCCCCC1=C(C)C(=O)C(OC)=C(OC)C1=O` [DECYLUBIQUINONE] was tested. Which mortality [1] did it give?
A: Its mortality is 13.3%.

Q: What about the Activity [5] of the same molecule?
A: The Activity was 19.3 mg.

Q: And the mortality [3]?
A: Its mortality is 100%.

Q: And the mortality [4]?
A: Its mortality is 75%.

Q: Which mortality [1] does the source give for `CCCCCCCCCCCC1=C(O)C(=O)C=C(O)C1=O` [EMBELIN] here?
A: Its mortality is 3.3%.

Q: What about the Activity [2] of the same molecule?
A: The Activity was 10.7 mg.

Q: What about the mortality [3] of the same molecule?
A: The mortality was 46.7%.

Q: What about the mortality [4] of the same molecule?
A: The mortality was 18.3%.

Q: `COC1=C(OC)C(=O)C(CCCCCCCCCCO)=C(C)C1=O` [IDEBENONE] was tested. Which mortality [1] did it give?
A: Its mortality is 0%.

Q: What about the Activity [5] of the same molecule?
A: The Activity was 37.9 mg.

Q: What about the mortality [3] of the same molecule?
A: Its mortality is 38.3%.

Q: And the mortality [4]?
A: The mortality was 0%.

Q: What does the source list for `CCCCCCCCCCCCCC1=C(O)C(=O)C=C(O)C1=O` [Rapanone]?
A: Activity [6]: 0.3 mg; mortality [1]: 5%; mortality [3]: 81.7%; mortality [4]: 76.7%

Q: How did the mortality [1] turn out when `COC1=C(OC)C(=O)C(C/C=C(\C)CC/C=C(\C)CC/C=C(\C)CC/C=C(\C)CC/C=C(\C)CC/C=C(\C)CC/C=C(\C)CC/C=C(\C)CC/C=C(\C)CCC=C(C)C)=C(C)C1=O` [UBIDECARENONE] was run?
A: Its mortality is 0%.

Q: And the Activity [2]?
A: The Activity was 49.6 mg.

Q: And the mortality [3]?
A: The mortality was 10%.

Q: What about the mortality [4] of the same molecule?
A: The mortality was 10%.

Q: What does the source list for `COC1=C(OC)C(=O)C(C)=CC1=O` [Ubiquinone Qo]?
A: mortality [1]: 75%; Activity [5]: 7.2 mg; mortality [3]: 90%; mortality [4]: 81.7%
